For 66 compounds, MIC results are on record in ChEMBL document CHEMBL3044862, “Quantitative Structure-Activity Relationships of Fluazinam and Related Fungicidal N-Phenylpyridinamines” (1995).

The assay relates to Botrytis cinerea. Nature of the assay: Fungicidal activity against Botryotinia fuckeliana inoculated on compound pre-treated one-leaf stage cucumber seedlings assessed as prevention of leaf lesions measured 3 days after inoculation. In kind it is functional.

≈ marks a conversion by molar mass, not a printed value. A value given as a limit tells only on which side of the number the result lay.

Take `Oc1c(Cl)cc(Nc2ncc(C(F)(F)F)cc2Cl)cc1Cl`: the MIC is > 500 µg/mL.
Consider `N#CSc1c(C(F)(F)F)cc([N+](=O)[O-])c(Nc2ncc(C(F)(F)F)cc2Cl)c1[N+](=O)[O-]`, for which the MIC is > 500 µg/mL.
The figure for `C[S+]([O-])c1c(C(F)(F)F)cc([N+](=O)[O-])c(Nc2ncc(C(F)(F)F)cc2Cl)c1[N+](=O)[O-]` (stereo unspecified) is > 500 µg/mL; for `CCOc1c(C(F)(F)F)cc([N+](=O)[O-])c(Nc2ncc(C(F)(F)F)cc2Cl)c1[N+](=O)[O-]` it is > 500 µg/mL.
Under `CCCOc1c(C(F)(F)F)cc([N+](=O)[O-])c(Nc2ncc(C(F)(F)F)cc2Cl)c1[N+](=O)[O-]` stands > 500 µg/mL; under `CCCCOc1c(C(F)(F)F)cc([N+](=O)[O-])c(Nc2ncc(C(F)(F)F)cc2Cl)c1[N+](=O)[O-]`, > 500 µg/mL.
The figure for `CC(C)Oc1c(C(F)(F)F)cc([N+](=O)[O-])c(Nc2ncc(C(F)(F)F)cc2Cl)c1[N+](=O)[O-]` is > 500 µg/mL; for `CC(C)COc1c(C(F)(F)F)cc([N+](=O)[O-])c(Nc2ncc(C(F)(F)F)cc2Cl)c1[N+](=O)[O-]` it is > 500 µg/mL; for `O=[N+]([O-])c1cc(C(F)(F)F)c(OCC(F)(F)C(F)F)c([N+](=O)[O-])c1Nc1ncc(C(F)(F)F)cc1Cl` it is > 500 µg/mL.
On to `O=[N+]([O-])c1cc(C(F)(F)F)c(OCC(F)(F)F)c([N+](=O)[O-])c1Nc1ncc(C(F)(F)F)cc1Cl`, for which the MIC is > 500 µg/mL.
Under `O=[N+]([O-])c1cc(C(F)(F)F)c(OCCCl)c([N+](=O)[O-])c1Nc1ncc(C(F)(F)F)cc1Cl` stands > 500 µg/mL; under `O=[N+]([O-])c1cc(C(F)(F)F)c(Oc2ccccc2C(F)(F)F)c([N+](=O)[O-])c1Nc1ncc(C(F)(F)F)cc1Cl`, > 500 µg/mL.
The figure for `O=[N+]([O-])c1cc(C(F)(F)F)c(Oc2cccc(C(F)(F)F)c2)c([N+](=O)[O-])c1Nc1ncc(C(F)(F)F)cc1Cl` is > 500 µg/mL; for `O=[N+]([O-])c1cc(C(F)(F)F)c(Oc2ccc(C(F)(F)F)cc2)c([N+](=O)[O-])c1Nc1ncc(C(F)(F)F)cc1Cl` it is > 500 µg/mL; for `O=[N+]([O-])c1cc(C(F)(F)F)c(Oc2ccc(C(F)(F)F)cc2Cl)c([N+](=O)[O-])c1Nc1ncc(C(F)(F)F)cc1Cl` it is > 500 µg/mL.
Regarding `CSc1c(C(F)(F)F)cc([N+](=O)[O-])c(Nc2ncc(C(F)(F)F)cc2Cl)c1[N+](=O)[O-]`, the MIC was > 500 µg/mL.
The figure for `FC(F)(F)c1cnc(Nc2cc(Cl)c(Oc3ncc(C(F)(F)F)cc3Cl)c(Cl)c2)c(Cl)c1` is > 500 µg/mL; for `CS(=O)(=O)c1cc([N+](=O)[O-])c(Nc2ncc(C(F)(F)F)cc2Cl)c([N+](=O)[O-])c1Cl` it is > 500 µg/mL; for `CCN(CC)S(=O)(=O)c1cc([N+](=O)[O-])c(Nc2ncc(C(F)(F)F)cc2Cl)c([N+](=O)[O-])c1Cl` it is > 500 µg/mL.
The figure for `O=[N+]([O-])c1cc(C(F)(F)F)cc([N+](=O)[O-])c1Nc1ncc(C(F)(F)F)cc1Cl` is > 500 µg/mL; for `O=[N+]([O-])c1cc(C(F)(F)F)c(F)c([N+](=O)[O-])c1Nc1ncc(C(F)(F)F)cc1Cl` it is > 500 µg/mL.
The figure for `O=[N+]([O-])c1cc(C(F)(F)F)c(Br)c([N+](=O)[O-])c1Nc1ncc(C(F)(F)F)cc1Cl` is < 16 µg/mL.
As for `O=[N+]([O-])c1cc(C(F)(F)F)c(I)c([N+](=O)[O-])c1Nc1ncc(C(F)(F)F)cc1Cl`, the MIC is > 500 µg/mL.
The figure for `Nc1c(C(F)(F)F)cc([N+](=O)[O-])c(Nc2ncc(C(F)(F)F)cc2Cl)c1[N+](=O)[O-]` is > 500 µg/mL; for `N#CNc1c(C(F)(F)F)cc([N+](=O)[O-])c(Nc2ncc(C(F)(F)F)cc2Cl)c1[N+](=O)[O-]` it is > 500 µg/mL; for `O=[N+]([O-])c1cc(C(F)(F)F)c(O)c([N+](=O)[O-])c1Nc1ncc(C(F)(F)F)cc1Cl` it is > 500 µg/mL.
The figure for `COc1c(C(F)(F)F)cc([N+](=O)[O-])c(Nc2ncc(C(F)(F)F)cc2Cl)c1[N+](=O)[O-]` is > 500 µg/mL; for `Cc1cc([N+](=O)[O-])c(Nc2ncc(C(F)(F)F)cc2Cl)c([N+](=O)[O-])c1Cl` it is > 500 µg/mL; for `Cc1c(Cl)c([N+](=O)[O-])c(Nc2ncc(C(F)(F)F)cc2Cl)c([N+](=O)[O-])c1Cl` it is > 500 µg/mL.
Under `O=[N+]([O-])c1cc(C(F)(F)F)c(Cl)cc1Nc1ncc(C(F)(F)F)cc1Cl` stands > 500 µg/mL; under `Nc1cc(C(F)(F)F)c(Cl)c(N)c1Nc1ncc(C(F)(F)F)cc1Cl`, > 500 µg/mL; under `Nc1c(Cl)c(C(F)(F)F)cc([N+](=O)[O-])c1Nc1ncc(C(F)(F)F)cc1Cl`, > 500 µg/mL.
As to `O=[N+]([O-])c1c(Cl)c(C(F)(F)F)c(Cl)c([N+](=O)[O-])c1Nc1ncc(C(F)(F)F)cc1Cl`, the MIC came out at 250 µg/mL (≈ 500 µM).
Under `N#Cc1cc([N+](=O)[O-])c(Nc2ncc(C(F)(F)F)cc2Cl)c([N+](=O)[O-])c1Cl` stands > 500 µg/mL; under `COC(=O)c1cc([N+](=O)[O-])c(Nc2ncc(C(F)(F)F)cc2Cl)c([N+](=O)[O-])c1Cl`, > 500 µg/mL; under `O=[N+]([O-])c1c(Cl)cc(Nc2ncc(C(F)(F)F)cc2Cl)c([N+](=O)[O-])c1Cl`, > 500 µg/mL.
Take `O=[N+]([O-])c1cc(C(F)(F)F)c(Nc2ncc(C(F)(F)F)cc2Cl)c([N+](=O)[O-])c1Cl`: the MIC was < 16 µg/mL.
Under `CCCSP(=O)(OCC)Oc1c(Cl)cc(Nc2ncc(C(F)(F)F)cc2Cl)cc1Cl` (stereo unspecified) stands > 500 µg/mL; under `CCOP(=O)(Oc1c(Cl)cc(Nc2ncc(C(F)(F)F)cc2Cl)cc1Cl)SC(C)CC` (stereo unspecified), > 500 µg/mL; under `O=[N+]([O-])c1cc(C(F)(F)F)c(Cl)c([N+](=O)[O-])c1Nc1ncc(Cl)cc1Br`, > 500 µg/mL.
Under `O=[N+]([O-])c1cc(C(F)(F)F)c(Cl)c([N+](=O)[O-])c1Nc1ncc(Br)cc1Br` stands > 500 µg/mL.
As for `O=[N+]([O-])c1cc(C(F)(F)F)c(Cl)c([N+](=O)[O-])c1Nc1ncc(C(F)(F)F)cc1Br`, the MIC was < 16 µg/mL.
Under `O=[N+]([O-])c1cc(C(F)(F)F)c(Cl)c([N+](=O)[O-])c1Nc1ncccc1C(F)(F)F` stands > 500 µg/mL; under `O=[N+]([O-])c1cc(C(F)(F)F)c(Cl)c([N+](=O)[O-])c1Nc1ncc(Cl)cc1C(F)(F)F`, 16 µg/mL (≈ 34.4 µM); under `O=[N+]([O-])c1cc(C(F)(F)F)c(Cl)c([N+](=O)[O-])c1Nc1ncc(Br)cc1C(F)(F)F`, 63 µg/mL (≈ 124 µM).
The figure for `O=[N+]([O-])c1cc(C(F)(F)F)c(Cl)c([N+](=O)[O-])c1Nc1ncc(C(F)(F)F)cc1C(F)(F)F` is < 16 µg/mL.
Consider `FC(F)(F)c1cnc(Nc2cc(Cl)cc(Cl)c2)c(Cl)c1`, for which the MIC was > 500 µg/mL.
The figure for `O=[N+]([O-])c1c(Cl)cc(Cl)c([N+](=O)[O-])c1Nc1ncc(C(F)(F)F)cc1Cl` is > 500 µg/mL.
The figure for `Fc1c(Cl)cc(Nc2ncc(C(F)(F)F)cc2Cl)c(F)c1Cl` is > 500 µg/mL.
Under `N#Cc1c(Cl)c(Cl)c(Cl)c(C#N)c1Nc1ncc(C(F)(F)F)cc1Cl` stands > 500 µg/mL.
As to `O=[N+]([O-])c1cc(C(F)(F)F)c(Cl)c([N+](=O)[O-])c1Nc1ccc(C(F)(F)F)cn1`, the MIC was > 500 µg/mL.
Consider `O=[N+]([O-])c1cc(C(F)(F)F)c(Cl)c([N+](=O)[O-])c1Nc1cc(C(F)(F)F)c(Cl)cn1`, for which the MIC came out at 16 µg/mL (≈ 34.4 µM).
The figure for `O=[N+]([O-])c1cc(C(F)(F)F)c(Cl)c([N+](=O)[O-])c1Nc1nc(C(F)(F)F)c(Cl)cc1Cl` is < 16 µg/mL; for `O=[N+]([O-])c1cc(C(F)(F)F)c(Cl)c([N+](=O)[O-])c1Nc1ncc(Cl)cc1Cl` it is > 500 µg/mL; for `O=[N+]([O-])c1cc(C(F)(F)F)c(Cl)c([N+](=O)[O-])c1Nc1ncc(Br)cc1Cl` it is > 500 µg/mL.
Take `O=[N+]([O-])c1cc(C(F)(F)F)c(Cl)c([N+](=O)[O-])c1Nc1nc(F)c(C(F)(F)F)cc1Cl`: the MIC is < 16 µg/mL.
`O=[N+]([O-])c1cc(C(F)(F)F)c(Cl)c([N+](=O)[O-])c1Nc1nc(Cl)c(C(F)(F)F)cc1Cl`: the MIC was < 16 µg/mL.
Under `CN(C)c1nc(Nc2c([N+](=O)[O-])cc(C(F)(F)F)c(Cl)c2[N+](=O)[O-])c(Cl)cc1C(F)(F)F` stands > 500 µg/mL; under `CNc1nc(Nc2c([N+](=O)[O-])cc(C(F)(F)F)c(Cl)c2[N+](=O)[O-])c(Cl)cc1C(F)(F)F`, > 500 µg/mL.
The figure for `N#Cc1cnc(Nc2c([N+](=O)[O-])cc(C(F)(F)F)c(Cl)c2[N+](=O)[O-])c(Cl)c1` is 63 µg/mL (≈ 149 µM); for `NC(=O)c1cnc(Nc2c([N+](=O)[O-])cc(C(F)(F)F)c(Cl)c2[N+](=O)[O-])c(Cl)c1` it is > 500 µg/mL.
The figure for `CCOC(=O)c1cnc(Nc2c([N+](=O)[O-])cc(C(F)(F)F)c(Cl)c2[N+](=O)[O-])c(Cl)c1` is > 500 µg/mL; for `COC(=O)c1cnc(Nc2c([N+](=O)[O-])cc(C(F)(F)F)c(Cl)c2[N+](=O)[O-])c(Cl)c1` it is > 500 µg/mL; for `O=C(O)c1cnc(Nc2c([N+](=O)[O-])cc(C(F)(F)F)c(Cl)c2[N+](=O)[O-])c(Cl)c1` it is > 500 µg/mL.
As to `Cc1c(Cl)cnc(Nc2c([N+](=O)[O-])cc(C(F)(F)F)c(Cl)c2[N+](=O)[O-])c1Cl`, the MIC is > 500 µg/mL.
Under `O=[N+]([O-])c1cc(C(F)(F)F)c(Cl)c([N+](=O)[O-])c1Nc1ncc(C(F)(F)F)cc1Cl` [FLUAZINAM] stands < 16 µg/mL.
